Results taken from the PolyMetriX glass transition set.

| SMILES | glass transition temperature [°C] |
| --- | --- |
| */C(C)=C(/*)c1ccc([Si](C)(C)C)cc1 (repeat unit) | -5.00 |
| *C(=O)Nc1ccc(-c2ccc(NC(=O)N3CC(C)N(*)CC3C)cc2)cc1 (repeat unit) | 250.00 |
| *CCCC(*)(C)C (repeat unit) | -20.00 |
| *CCCCCC(*)C (repeat unit) | -66.00 |
| *CCCCCC(*)CCCCCC (repeat unit) | -76.00 |
| *CCCCCCC(Cl)C(*)Cl (repeat unit) | -18.00 |
| *CCCCCCC(c1ccc(O)cc1)C(*)c1ccc(O)cc1C (repeat unit) | 18.00 |
| *CCCCCCCC(c1ccc(O)cc1)C(*)c1ccc(O)cc1C (repeat unit) | 4.00 |
| *CCCCCCCCc1nc2cc(NC(=O)CCCCCCCCC(=O)Nc3ccc4oc(*)nc4c3)ccc2o1 (repeat unit) | 93.00 |
| *CCCCCCNC(=O)CCCCCCCC1C(CCCCCCCC(=O)N*)C=CC(CCCCCC)C1CCCCCCCC (repeat unit) | -3.00 |
| *CCCCOC(=O)CCCC(=O)O* (repeat unit) | -36.50 |
| *CCCOC(=O)CCCCC(=O)O* (repeat unit) | -55.00 |
| *CCCP(CCCNC(=O)CCCCC(=O)N*)c1ccccc1 (repeat unit) | 49.00 |
| *CCNC(=O)CCCCC(=O)N* (repeat unit) | 71.00 |
| *CCOC(=O)CCCCCC(=O)O* (repeat unit) | -46.00 |
| *Nc1ccc(-c2ccc(NC(=O)c3cc(NC(=O)c4ccncc4)cc(C(*)=O)c3)cc2)cc1 (repeat unit) | 339.00 |
| *Nc1cccc(NC(=O)CCCCC(=O)Nc2ccc(C(=O)NC(*)=S)cc2)c1 (repeat unit) | 267.00 |

| SMILES | glass transition temperature [°C] |
| --- | --- |
| *OC(=O)C(Cc1ccccc1)NC(=O)CCCCC(=O)NC(Cc1ccccc1)C(=O)OC1COC2C(*)COC12 (repeat unit) | 97.50 |
| *OC(C)CCCCC(*)=O (repeat unit) | -40.00 |
| *O[Si](C)(C)CCCC(=O)Oc1ccc(/C=N/c2ccc(/N=C/c3ccc(OC(=O)CCC[Si](*)(C)C)cc3)cc2)cc1 (repeat unit) | 60.00 |
| *O[Si](C)(C)CCCC(=O)Oc1ccc(/C=N/c2ccc(Oc3ccc(/N=C/c4ccc(OC(=O)CCC[Si](*)(C)C)cc4)cc3)cc2)cc1 (repeat unit) | 52.00 |
| *O[Si](C)(C)O[Si](C)(C)O[Si](C)(C)O[Si](C)(C)OC(C)CCCCC(*)C (repeat unit) | -98.00 |
| *O[Si](C)(C)O[Si](C)(C)O[Si](C)(C)O[Si](C)(C)O[Si](C)(C)OC(C)CCCCC(*)C (repeat unit) | -104.00 |
| *Oc1c(-c2ccccc2)cc(Cc2cc(-c3ccccc3)c(OC(=O)CCCCC(*)=O)c(-c3ccccc3)c2)cc1-c1ccccc1 (repeat unit) | 115.00 |
| *Oc1ccc(/C(=C/c2ccc(-c3ccc(/C=C(\c4ccccc4)c4ccc(OC(=O)CCCCC(*)=O)cc4)cc3)cc2)c2ccccc2)cc1 (repeat unit) | 128.00 |
| *Oc1ccc(C(=O)c2cccc(NC(=O)CCCCCCCCC(=O)Nc3ccc(C(=O)c4ccc(*)cc4)cc3)c2)cc1 (repeat unit) | 148.00 |
| *Oc1ccc(C2(c3ccc(Oc4ccc(-c5ccc(NC(=O)c6cc(C(=O)Nc7ccc(-c8ccc(*)c(C(F)(F)F)c8)cc7)cc(C(C)(C)C)c6)cc5)cc4C(F)(F)F)cc3)c3ccccc3-c3ccccc32)cc1 (repeat unit) | 278.00 |
| *Oc1ccc(NC(=O)CCCCC(=O)Nc2ccc(OC3COC4C(*)COC34)cc2)cc1 (repeat unit) | 150.00 |
| *c1ccc(NC(=O)CCCCC(=O)Nc2ccc(S(*)(=O)=O)cc2)cc1 (repeat unit) | 194.00 |
| *c1ccc(NC(=O)CCCCCC(=O)Nc2ccc(S(*)(=O)=O)cc2)cc1 (repeat unit) | 163.00 |
| *c1ccc(NC(=O)c2cc(NC(=O)c3ccc(OC(C)=O)cc3)cc(C(=O)Nc3ccc(-c4nnc(*)o4)cc3)c2)cc1 (repeat unit) | 280.00 |
| *c1ccc2c(c1)C(=O)N(c1ccc(Cc3ccc(N4C(=O)c5ccc(C(C)(C)CCCCC(*)(C)C)cc5C4=O)cc3)cc1)C2=O (repeat unit) | 169.90 |
| *c1cccc(NC(=O)CCCCC(=O)Nc2cccc(S(*)(=O)=O)c2)c1 (repeat unit) | 140.00 |

Second part, the compound after the results:

| glass transition temperature [°C] | SMILES |
| --- | --- |
| 61.00 | *C/C=C/COC(=O)C(Cc1ccccc1)NC(=O)CCCCC(=O)NC(Cc1ccccc1)C(=O)O* (repeat unit) |
| 60.00 | *CC#C/C(C#CCOC(=O)CCCCCCCCC(=O)O*)=C\c1ccc(C#Cc2ccc(C=C(C#Cc3ccccc3)C#Cc3ccccc3)cc2)cc1 (repeat unit) |
| -60.50 | *CC(F)(F)C(F)(F)C(F)(F)COC(=O)CCCCC(=O)O* (repeat unit) |
| 37.00 | *CC(O)COC(=O)CCCCC(=O)OCC(O)COc1ccc(C(=O)Oc2ccc(O*)cc2)cc1 (repeat unit) |
| 113.00 | *CC1CCC(CNC(=O)CCCCC(=O)N*)CC1 (repeat unit) |
| 99.00 | *CCCC1(C)CCN(C(=O)CCC(=O)N2CCC(*)(C)CC2)CC1 (repeat unit) |
| 58.00 | *CCCC1(C)CCN(C(=O)CCCC(=O)N2CCC(*)(C)CC2)CC1 (repeat unit) |
| -23.00 | *CCCCCCCC(=O)OCC1COC(*)O1 (repeat unit) |
| 40.00 | *CCCCCCCCCCCNC(=O)CCCCCCCCC(=O)N* (repeat unit) |
| 45.00 | *CCCCCCCCCCNC(=O)CCCCC(=O)N* (repeat unit) |
| -22.00 | *CCCCCCCCCCOC(=O)CCCCCCC(=O)O* (repeat unit) |
| -12.00 | *CCCCCCCCCCOC(=O)CCCCCNC(=O)CCCCC(=O)NCCCCCC(=O)O* (repeat unit) |
| 54.00 | *CCCCCCCCNC(=O)CCCCCCCCC(=O)N* (repeat unit) |
| 92.00 | *CCCCCCCCc1nc2cc(NC(=O)CCCCC(=O)Nc3ccc4oc(*)nc4c3)ccc2o1 (repeat unit) |
| 55.00 | *CCCCCCCNC(=O)CCCCCC(=O)N* (repeat unit) |
| -18.00 | *CCCCCCNC(=O)CCCC(=O)O* (repeat unit) |
| 45.00 | *CCCCCCOC(=O)NNC(=O)CCCCCCCCC(=O)NNC(=O)O* (repeat unit) |
| 60.50 | *CCCCCCS(=O)(=O)c1ccc(/N=N/c2ccc(N(C)CCCCCC(=O)O*)cc2)cc1 (repeat unit) |
| -20.00 | *CCCCOC(=O)CCCCC(=O)OCCCCOC(=O)c1ccc(C(=O)O*)cc1 (repeat unit) |
| -62.50 | *CCCCOC(=O)CCCCCCCC(=O)O* (repeat unit) |
| -15.00 | *CCCCOC(=O)CCCCCNC(=O)CCCCC(=O)NCCCCCC(=O)O* (repeat unit) |
| 34.00 | *CCCNC(=O)CCCCC(=O)NCCCO* (repeat unit) |
| 22.00 | *CCCOC(=O)NNC(=O)CCCCCCCCC(=O)NNC(=O)O* (repeat unit) |
| 54.00 | *CCN(CCOC(=O)CCCCC(=O)O*)c1ccc(/C=N/N(c2ccccc2)c2ccccc2)cc1 (repeat unit) |

| glass transition temperature [°C] | SMILES |
| --- | --- |
| -1.00 | *CCOC(=O)CCCCCCC(=O)OCCOC(=O)c1ccc(C(=O)O*)cc1 (repeat unit) |
| -45.00 | *CCOC(=O)CCCCCCCC(=O)O* (repeat unit) |
| 63.00 | *CCOC(=O)NNC(=O)CCCCCCCCC(=O)NNC(=O)O* (repeat unit) |
| -51.00 | *CCOCCOC(=O)CCCCC(=O)O* (repeat unit) |
| -66.00 | *CCOCCOC(=O)CCCCCCC(=O)O* (repeat unit) |
| -44.50 | *CCOCCOCCOC(=O)CCCCCC(=O)O* (repeat unit) |
| 105.00 | *CCc1ccc(CCNC(=O)CCCCCCCCC(=O)N*)cc1 (repeat unit) |
| 93.00 | *CNC(=O)CCCCC(=O)NCC1COC(*)CO1 (repeat unit) |
| 116.00 | *NC1CCC(CCC2CCC(NC(=O)CCCCCCCCC(*)=O)CC2)CC1 (repeat unit) |
| 115.00 | *Nc1ccc(CCNC(=O)CCCCC(*)=O)cc1 (repeat unit) |
| 140.00 | *Nc1ccc(Cc2ccc(NC(=O)CCCCCCCC(*)=O)cc2)cc1 (repeat unit) |
| 114.2 | *Nc1cccc(NC(=O)CCCCC(*)=O)c1 (repeat unit) |
| 110.00 | *Nc1cccc(NC(=O)CCCCCCCCC(*)=O)c1 (repeat unit) |
| 77.80 | *OC1CCC(OC(=O)CCCCC(*)=O)CC1 (repeat unit) |
| 158.00 | *Oc1ccc(C2(c3ccc(OC(=O)CCCCCCC(*)=O)cc3)c3ccccc3-c3ccccc32)cc1 (repeat unit) |
| 180.00 | *Oc1ccc(NC(=O)CCCCCC(=O)Nc2ccc(*)cc2)cc1 (repeat unit) |
| 180.00 | *Oc1ccc(NC(=O)CCCCCCC(=O)Nc2ccc(*)cc2)cc1 (repeat unit) |
| 90.00 | *Oc1ccc(OC(=O)CCCCC(*)=O)cc1 (repeat unit) |
| 140.00 | *Oc1cccc(NC(=O)CCCCCCC(=O)Nc2ccc(*)cc2)c1 (repeat unit) |
| 120.00 | *Oc1cccc(NC(=O)CCCCCCCC(=O)Nc2ccc(*)cc2)c1 (repeat unit) |
| 72.34 | *c1ccc(NC(=O)CCCCCCCCC(=O)Nc2ccc(S(*)(=O)=O)cc2)cc1 (repeat unit) |
| 125.00 | *c1cccc(NC(=O)CCCCCCCC(=O)Nc2cccc(S(*)(=O)=O)c2)c1 (repeat unit) |
| 112.00 | *c1cccc(NC(=O)CCCCCCCCC(=O)Nc2cccc(S(*)(=O)=O)c2)c1 (repeat unit) |
